Where “and” joins values, the source holds several entries; their conditions need not be identical. Identical values can stand only once.
Key:
Assay in all cases: radiometric filter-binding kinase assay, Kinase HotSpot
Details in all cases: compound 0.5 µM; ATP 10 µM
ABL2 (human) = ABL2 (human) (UniProt P42684)
BMX (human) = BMX (human) (UniProt P51813)
BTK (human) = BTK (human) (UniProt Q06187)
CAMK1D (human) = CAMK1D (human) (UniProt Q8IU85)
CAMK2B (human) = CAMK2B (human) (UniProt Q13554)
CDK4 CCND3 (human) = CDK4 CCND3 (human) (UniProt P30281+P11802)
CHUK (human) = CHUK (human) (UniProt O15111)
CSNK1G1 (human) = CSNK1G1 (human) (UniProt Q9HCP0)
DCLK2 (human) = DCLK2 (human) (UniProt Q8N568)
DSTYK (human) = DSTYK (human) (UniProt Q6XUX3)
DYRK4 (human) = DYRK4 (human) (UniProt Q9NR20)
EPHA1 (human) = EPHA1 (human) (UniProt P21709)
EPHA5 (human) = EPHA5 (human) (UniProt P54756)
EPHA8 (human) = EPHA8 (human) (UniProt P29322)
ERBB4 (human) = ERBB4 (human) (UniProt Q15303)
GRK4 (human) = GRK4 (human) (UniProt P32298)
GRK5 (human) = GRK5 (human) (UniProt P34947)
HCK (human) = HCK (human) (UniProt P08631)
HIPK1 (human) = HIPK1 (human) (UniProt Q86Z02)
INSRR (human) = INSRR (human) (UniProt P14616)
JAK2 JH1 JH2 (human) = JAK2 JH1 JH2 (human) (UniProt O60674)
LRRK2 (human) = LRRK2 (human) (UniProt Q5S007)
MAP2K2 (human) = MAP2K2 (human) (UniProt P36507)
MAP3K3 (human) = MAP3K3 (human) (UniProt Q99759)
MAPK12 (human) = MAPK12 (human) (UniProt P53778)
MAPK8 (human) = MAPK8 (human) (UniProt P45983)
MARK2 (human) = MARK2 (human) (UniProt Q7KZI7)
NEK1 (human) = NEK1 (human) (UniProt Q96PY6)
NEK4 (human) = NEK4 (human) (UniProt P51957)
NEK6 (human) = NEK6 (human) (UniProt Q9HC98)
NEK7 (human) = NEK7 (human) (UniProt Q8TDX7)
NEK9 (human) = NEK9 (human) (UniProt Q8TD19)
PRKCD (human) = PRKCD (human) (UniProt Q05655)
PRKCG (human) = PRKCG (human) (UniProt P05129)
PRKD1 (human) = PRKD1 (human) (UniProt Q15139)
PRKG1 (human) = PRKG1 (human) (UniProt Q13976)
RET (human) = RET (human) (UniProt P07949)
SGK2 (human) = SGK2 (human) (UniProt Q9HBY8)
SRPK2 (human) = SRPK2 (human) (UniProt P78362)
TAOK3 (human) = TAOK3 (human) (UniProt Q9H2K8)
YES1 (human) = YES1 (human) (UniProt P07947)
MAP4K5 (human) = MAP4K5 (human) (UniProt Q9Y4K4)

Sequence of MAP2K2 (human) (P36507 whole entry, looked up): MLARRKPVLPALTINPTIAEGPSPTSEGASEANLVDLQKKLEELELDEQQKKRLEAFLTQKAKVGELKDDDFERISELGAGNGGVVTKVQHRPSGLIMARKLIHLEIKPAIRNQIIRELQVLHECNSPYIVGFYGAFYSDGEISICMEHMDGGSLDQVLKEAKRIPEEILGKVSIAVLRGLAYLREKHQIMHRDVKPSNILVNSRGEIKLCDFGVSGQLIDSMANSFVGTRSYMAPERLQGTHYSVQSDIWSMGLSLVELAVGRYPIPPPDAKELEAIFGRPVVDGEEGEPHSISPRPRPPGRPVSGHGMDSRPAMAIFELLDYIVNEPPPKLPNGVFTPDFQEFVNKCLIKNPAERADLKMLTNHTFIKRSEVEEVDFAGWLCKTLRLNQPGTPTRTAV
Sequence of CAMK2B (human) (Q13554 whole entry, looked up): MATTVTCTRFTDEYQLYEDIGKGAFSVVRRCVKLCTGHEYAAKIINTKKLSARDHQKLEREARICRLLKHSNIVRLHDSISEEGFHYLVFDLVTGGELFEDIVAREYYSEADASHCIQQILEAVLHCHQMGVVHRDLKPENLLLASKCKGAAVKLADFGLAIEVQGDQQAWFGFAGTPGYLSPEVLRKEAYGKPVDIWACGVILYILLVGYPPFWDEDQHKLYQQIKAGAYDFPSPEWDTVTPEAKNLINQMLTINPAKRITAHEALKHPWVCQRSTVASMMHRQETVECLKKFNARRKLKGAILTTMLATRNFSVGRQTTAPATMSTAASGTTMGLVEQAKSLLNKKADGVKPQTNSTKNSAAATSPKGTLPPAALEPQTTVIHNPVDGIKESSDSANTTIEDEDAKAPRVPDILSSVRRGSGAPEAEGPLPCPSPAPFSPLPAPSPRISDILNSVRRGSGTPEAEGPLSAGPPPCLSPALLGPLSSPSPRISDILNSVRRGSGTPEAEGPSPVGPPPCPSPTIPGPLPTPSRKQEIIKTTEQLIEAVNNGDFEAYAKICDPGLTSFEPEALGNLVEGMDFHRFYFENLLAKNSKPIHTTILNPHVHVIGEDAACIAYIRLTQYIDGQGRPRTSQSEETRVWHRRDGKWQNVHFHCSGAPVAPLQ
Sequence of EPHA8 (human) (P29322 whole entry, looked up): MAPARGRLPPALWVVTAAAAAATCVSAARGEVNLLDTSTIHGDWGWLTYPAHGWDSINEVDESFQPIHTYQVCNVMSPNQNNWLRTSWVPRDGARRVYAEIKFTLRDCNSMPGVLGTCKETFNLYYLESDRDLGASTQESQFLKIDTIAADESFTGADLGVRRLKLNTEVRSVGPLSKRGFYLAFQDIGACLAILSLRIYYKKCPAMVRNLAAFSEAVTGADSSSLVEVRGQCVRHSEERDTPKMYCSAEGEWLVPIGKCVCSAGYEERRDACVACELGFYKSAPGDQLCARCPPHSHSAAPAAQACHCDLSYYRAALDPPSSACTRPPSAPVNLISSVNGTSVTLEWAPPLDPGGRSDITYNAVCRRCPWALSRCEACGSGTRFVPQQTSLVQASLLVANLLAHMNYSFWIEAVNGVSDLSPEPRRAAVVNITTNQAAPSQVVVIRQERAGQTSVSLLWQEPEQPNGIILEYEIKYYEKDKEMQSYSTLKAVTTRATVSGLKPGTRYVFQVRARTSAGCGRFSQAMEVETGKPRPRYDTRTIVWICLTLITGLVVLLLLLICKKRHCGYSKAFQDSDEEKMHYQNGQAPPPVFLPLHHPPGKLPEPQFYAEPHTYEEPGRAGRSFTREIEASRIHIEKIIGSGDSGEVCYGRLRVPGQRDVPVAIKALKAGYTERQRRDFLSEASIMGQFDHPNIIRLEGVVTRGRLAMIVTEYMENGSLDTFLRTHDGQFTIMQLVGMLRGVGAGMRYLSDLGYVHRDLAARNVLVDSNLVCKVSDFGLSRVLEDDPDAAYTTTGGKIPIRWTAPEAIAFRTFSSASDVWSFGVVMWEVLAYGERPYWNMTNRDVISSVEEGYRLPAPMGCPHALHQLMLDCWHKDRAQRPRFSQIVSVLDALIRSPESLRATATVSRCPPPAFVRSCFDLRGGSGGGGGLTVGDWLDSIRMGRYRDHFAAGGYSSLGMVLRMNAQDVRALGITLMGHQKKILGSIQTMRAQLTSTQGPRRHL
Sequence of NEK4 (human) (P51957 whole entry, looked up): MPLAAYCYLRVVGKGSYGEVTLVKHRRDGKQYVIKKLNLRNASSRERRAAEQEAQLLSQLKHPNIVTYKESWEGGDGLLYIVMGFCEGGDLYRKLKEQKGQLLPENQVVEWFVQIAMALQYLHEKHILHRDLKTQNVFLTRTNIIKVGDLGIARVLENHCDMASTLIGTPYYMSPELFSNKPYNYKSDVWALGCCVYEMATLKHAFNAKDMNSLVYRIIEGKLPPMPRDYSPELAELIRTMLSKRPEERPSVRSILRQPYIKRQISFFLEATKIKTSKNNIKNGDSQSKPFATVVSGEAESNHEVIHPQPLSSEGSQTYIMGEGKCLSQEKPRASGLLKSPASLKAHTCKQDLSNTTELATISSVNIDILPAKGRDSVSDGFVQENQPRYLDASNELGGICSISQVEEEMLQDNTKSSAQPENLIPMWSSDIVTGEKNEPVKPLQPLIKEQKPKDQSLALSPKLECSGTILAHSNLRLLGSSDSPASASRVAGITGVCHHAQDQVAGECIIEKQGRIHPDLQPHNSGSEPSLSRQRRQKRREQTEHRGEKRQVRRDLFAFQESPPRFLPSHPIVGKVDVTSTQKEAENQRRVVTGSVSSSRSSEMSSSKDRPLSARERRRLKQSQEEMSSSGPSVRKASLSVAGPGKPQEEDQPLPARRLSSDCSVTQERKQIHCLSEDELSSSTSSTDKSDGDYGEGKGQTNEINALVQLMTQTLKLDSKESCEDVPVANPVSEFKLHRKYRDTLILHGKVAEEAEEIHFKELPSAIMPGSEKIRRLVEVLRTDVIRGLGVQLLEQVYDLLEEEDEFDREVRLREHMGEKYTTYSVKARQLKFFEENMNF
Sequence of SRPK2 (human) (P78362 whole entry, looked up): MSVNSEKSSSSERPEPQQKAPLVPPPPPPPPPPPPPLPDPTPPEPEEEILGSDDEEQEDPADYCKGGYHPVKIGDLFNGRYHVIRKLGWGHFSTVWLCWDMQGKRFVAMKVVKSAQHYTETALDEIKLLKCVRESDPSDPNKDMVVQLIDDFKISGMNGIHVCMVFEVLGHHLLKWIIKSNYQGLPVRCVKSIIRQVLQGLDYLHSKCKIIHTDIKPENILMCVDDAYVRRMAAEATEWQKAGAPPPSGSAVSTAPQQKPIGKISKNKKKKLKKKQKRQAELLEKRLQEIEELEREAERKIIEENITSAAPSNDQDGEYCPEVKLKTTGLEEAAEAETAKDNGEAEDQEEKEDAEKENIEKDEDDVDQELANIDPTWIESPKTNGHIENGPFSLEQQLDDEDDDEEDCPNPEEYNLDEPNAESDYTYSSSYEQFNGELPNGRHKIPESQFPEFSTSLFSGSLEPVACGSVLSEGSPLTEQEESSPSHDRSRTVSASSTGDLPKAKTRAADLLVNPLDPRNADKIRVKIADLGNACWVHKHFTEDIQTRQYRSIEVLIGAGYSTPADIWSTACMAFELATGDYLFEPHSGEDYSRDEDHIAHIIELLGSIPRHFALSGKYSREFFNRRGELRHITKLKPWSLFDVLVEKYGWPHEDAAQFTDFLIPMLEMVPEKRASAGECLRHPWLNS
Sequence of CAMK1D (human) (Q8IU85 whole entry, looked up): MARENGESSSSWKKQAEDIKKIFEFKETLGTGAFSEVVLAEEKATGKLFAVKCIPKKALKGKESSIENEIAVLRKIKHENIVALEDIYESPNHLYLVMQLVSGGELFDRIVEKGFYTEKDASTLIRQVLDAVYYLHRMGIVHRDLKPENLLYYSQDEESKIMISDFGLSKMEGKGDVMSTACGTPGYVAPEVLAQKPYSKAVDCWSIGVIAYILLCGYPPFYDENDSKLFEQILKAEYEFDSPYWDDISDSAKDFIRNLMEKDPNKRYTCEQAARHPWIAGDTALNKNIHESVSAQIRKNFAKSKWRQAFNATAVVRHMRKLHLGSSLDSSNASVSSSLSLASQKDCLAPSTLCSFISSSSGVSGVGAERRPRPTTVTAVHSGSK
Sequence of NEK7 (human) (Q8TDX7 whole entry, looked up): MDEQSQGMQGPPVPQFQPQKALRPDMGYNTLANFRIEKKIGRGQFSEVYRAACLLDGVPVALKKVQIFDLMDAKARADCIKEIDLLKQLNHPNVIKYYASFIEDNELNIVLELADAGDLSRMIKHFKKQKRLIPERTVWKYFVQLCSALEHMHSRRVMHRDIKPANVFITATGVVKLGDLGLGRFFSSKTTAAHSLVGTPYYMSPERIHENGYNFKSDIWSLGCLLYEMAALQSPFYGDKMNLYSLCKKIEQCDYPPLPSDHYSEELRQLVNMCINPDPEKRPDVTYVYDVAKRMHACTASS

Q: What does the source list for `O=c1cc(N2CCNCC2)oc2c(-c3ccccc3)cccc12`?
A: residual activity (ABL2 (human)): 99.5%; residual activity (BMX (human)): 98%; residual activity (BTK (human)): 85.7%; residual activity (CAMK1D (human)): 82%; residual activity (CAMK2B (human)): 108%; residual activity (CDK4 CCND3 (human)): 101%; residual activity (CHUK (human)): 103%; residual activity (CSNK1G1 (human)): 103%; residual activity (DCLK2 (human)): 116%; residual activity (DSTYK (human)): 92.8%; residual activity (DYRK4 (human)): 94.7%; residual activity (EPHA1 (human)): 112%; residual activity (EPHA5 (human)): 109%; residual activity (EPHA8 (human)): 98.1%; residual activity (ERBB4 (human)): 104%; residual activity (GRK4 (human)): 106%; residual activity (GRK5 (human)): 103%; residual activity (HCK (human)): 93.7%; residual activity (HIPK1 (human)): 110%; residual activity (INSRR (human)): 89.2%; residual activity (JAK2 JH1 JH2 (human)): 104%; residual activity (LRRK2 (human)): 101%; residual activity (MAP2K2 (human)): 94%; residual activity (MAP3K3 (human)): 109%; residual activity (MAPK12 (human)): 92%; residual activity (MAPK8 (human)): 89.3%; residual activity (MARK2 (human)): 105%; residual activity (NEK1 (human)): 82.8%; residual activity (NEK4 (human)): 86.4%; residual activity (NEK6 (human)): 105%; residual activity (NEK7 (human)): 95.7%; residual activity (NEK9 (human)): 102%; residual activity (PRKCD (human)): 99.6%; residual activity (PRKCG (human)): 96.1%; residual activity (PRKD1 (human)): 91.9%; residual activity (PRKG1 (human)): 100% and 102%; residual activity (RET (human)): 106%; residual activity (SGK2 (human)): 102%; residual activity (SRPK2 (human)): 105%; residual activity (TAOK3 (human)): 92.8%; residual activity (YES1 (human)): 96.4%

Q: What does the source list for `Nc1nc(Nc2ccc(S(N)(=O)=O)cc2)nn1C(=O)c1c(F)cccc1F`?
A: residual activity (ABL2 (human)): 53.9%; residual activity (BTK (human)): 87.1%; residual activity (CAMK1D (human)): 97.7%; residual activity (CAMK2B (human)): 99.7%; residual activity (CDK4 CCND3 (human)): 34.7%; residual activity (CHUK (human)): 99%; residual activity (DCLK2 (human)): 85.3%; residual activity (DSTYK (human)): 86.2%; residual activity (DYRK4 (human)): 105%; residual activity (EPHA1 (human)): 73.7%; residual activity (EPHA5 (human)): 92.2%; residual activity (EPHA8 (human)): 109%; residual activity (ERBB4 (human)): 110%; residual activity (GRK4 (human)): 94.7%; residual activity (GRK5 (human)): 85.9%; residual activity (HCK (human)): 86.2%; residual activity (HIPK1 (human)): 106%; residual activity (INSRR (human)): 93.8%; residual activity (JAK2 JH1 JH2 (human)): 19.2%; residual activity (LRRK2 (human)): 48.3%; residual activity (MAP2K2 (human)): 85.6%; residual activity (MAP3K3 (human)): 27.5%; residual activity (MAP4K5 (human)): 45.3%; residual activity (MAPK12 (human)): 89.9%; residual activity (MAPK8 (human)): 85.9%; residual activity (NEK1 (human)): 76.3%; residual activity (NEK4 (human)): 79.2%; residual activity (NEK6 (human)): 102%; residual activity (NEK7 (human)): 99%; residual activity (NEK9 (human)): 82.2%; residual activity (PRKCD (human)): 81.2%; residual activity (PRKCG (human)): 81.3%; residual activity (PRKD1 (human)): 66.5%; residual activity (PRKG1 (human)): 104% and 86.1%; residual activity (RET (human)): 54.1%; residual activity (SGK2 (human)): 106%; residual activity (SRPK2 (human)): 54.9%; residual activity (TAOK3 (human)): 39.9%; residual activity (YES1 (human)): 50.6%

Q: How did the residual activity (ABL2 (human)) turn out when `CCCNC(=O)Nc1ccc(Oc2ncnc3cc(OC)c(OC)cc23)cc1Cl` was run?
A: Its residual activity is 90.5%.

Q: And the residual activity (BMX (human))?
A: The residual activity was 93.6%.

Q: And the residual activity (BTK (human))?
A: The residual activity was 98.6%.

Q: What about the residual activity (CAMK1D (human)) of the same compound?
A: The residual activity was 96.8%.

Q: And the residual activity (CAMK2B (human))?
A: The residual activity was 94.9%.

Q: What about the residual activity (CDK4 CCND3 (human)) of the same compound?
A: Its residual activity is 101%.

Q: What about the residual activity (CHUK (human)) of the same compound?
A: The residual activity was 84.9%.

Q: And the residual activity (CSNK1G1 (human))?
A: The residual activity was 97.1%.

Q: And the residual activity (DCLK2 (human))?
A: The residual activity was 96.4%.

Q: What about the residual activity (DSTYK (human)) of the same compound?
A: The residual activity was 88.6%.

Q: And the residual activity (DYRK4 (human))?
A: Its residual activity is 106%.

Q: What about the residual activity (EPHA1 (human)) of the same compound?
A: Its residual activity is 96.9%.

Q: And the residual activity (EPHA5 (human))?
A: Its residual activity is 81.8%.

Q: What about the residual activity (EPHA8 (human)) of the same compound?
A: The residual activity was 105%.

Q: What about the residual activity (GRK4 (human)) of the same compound?
A: The residual activity was 94.4%.

Q: And the residual activity (GRK5 (human))?
A: Its residual activity is 105%.

Q: What about the residual activity (HCK (human)) of the same compound?
A: The residual activity was 88.7%.

Q: What about the residual activity (HIPK1 (human)) of the same compound?
A: Its residual activity is 96.8%.

Q: And the residual activity (INSRR (human))?
A: The residual activity was 98.4%.

Q: And the residual activity (JAK2 JH1 JH2 (human))?
A: The residual activity was 96.9%.

Q: What about the residual activity (LRRK2 (human)) of the same compound?
A: The residual activity was 94.1%.

Q: And the residual activity (MAP2K2 (human))?
A: The residual activity was 99.9%.

Q: What about the residual activity (MAP3K3 (human)) of the same compound?
A: The residual activity was 95.3%.

Q: And the residual activity (MAP4K5 (human))?
A: The residual activity was 54.6%.

Q: What about the residual activity (MAPK12 (human)) of the same compound?
A: Its residual activity is 61.9%.

Q: And the residual activity (MAPK8 (human))?
A: Its residual activity is 107%.

Q: And the residual activity (MARK2 (human))?
A: Its residual activity is 96.2%.

Q: And the residual activity (NEK1 (human))?
A: Its residual activity is 91.8%.

Q: What about the residual activity (NEK4 (human)) of the same compound?
A: Its residual activity is 76%.

Q: And the residual activity (NEK6 (human))?
A: The residual activity was 105%.

Q: And the residual activity (NEK7 (human))?
A: Its residual activity is 103%.

Q: And the residual activity (NEK9 (human))?
A: The residual activity was 83.3%.

Q: What about the residual activity (PRKCD (human)) of the same compound?
A: The residual activity was 90.1%.

Q: What about the residual activity (PRKCG (human)) of the same compound?
A: The residual activity was 120%.

Q: And the residual activity (PRKD1 (human))?
A: The residual activity was 92.9%.

Q: And the residual activity (PRKG1 (human))?
A: Its residual activity is 76.8% and 95.4%.

Q: What about the residual activity (RET (human)) of the same compound?
A: Its residual activity is 8.42%.

Q: What about the residual activity (SGK2 (human)) of the same compound?
A: The residual activity was 97.1%.

Q: What about the residual activity (SRPK2 (human)) of the same compound?
A: Its residual activity is 91.1%.

Q: What about the residual activity (TAOK3 (human)) of the same compound?
A: Its residual activity is 95.9%.

Q: What about the residual activity (YES1 (human)) of the same compound?
A: Its residual activity is 82.1%.

Reference: the kinase profiling compilation of Christmann-Franck et al. (2016)
